# Laboratory results as given in patent US7038111B2, “Method for increasing stress tolerance in plants” (The Arizona Board of Regents, priority 2001, dated 2006).
# Key:
# Assay type in all cases: in vivo, Arabidopsis thaliana
# LOS5/ABA3 gene = assay: RNA blot analysis of LOS5/ABA3 transcript level; settings: wild type seedlings, 100 μM ABA for 4 hr
# Method: […] For NaCl or PEG treatment, seedlings on MS plates were transferred to filter paper saturated with MS solution supplemented with 300 mM NaCl or 30% of polyethylene glycol (molecular weight 6,000) and incubated for 5 hr. Unless otherwise stated, cold treatment for image analysis and RNA analysis were done by incubating seedlings growing in plates at 0° C. in the dark for 48 hr (for imaging) or 12 hr (for RNA analysis). Because longer treatment at −5 or −10° C. will result in freezing of the agar media, these freezing temperature treatments only lasted for 3 hr. After the treatment, the plates were placed at room temperature for 2 hr to thaw before luminescence images acquisition. For ABA plus NaCl treatment, seedlings were transferred onto a filter paper saturated with 300 mM NaCl in MS solution and sprayed immediately with 100 μM ABA. The plants were then incubated under cool-white light for 4 hr before luciferase imaging. For low temperature plus ABA treatment, seedlings on agar plates were briefly incubated at 0±1° C. for 10 min and then sprayed with 100 μM ABA and incubated in the dark at 0±1° C. for 48 hr before image analysis.
# Ten-day-old seedlings on MS agar plates were treated were treated with cold, ABA, NaCl, or PEG as described in the above section. […] Total RNA from control or treated plants was extracted and analyzed as described (Ishitani et al., 1998). […]
# RD29A-LUC = RD29A-LUC luminescence expression in seedlings, ABA given together with salt or cold stress
# Method: Arabidopsis thaliana (C24 ecotype) expressing the RD29A-LUC transgene (referred to as the wild type) were obtained by Agrobacterium-mediated transformation (Ishitani et al., 1997). Seeds of wild type RD29A-LUC were mutagenized by ethyl methanesulfonate (Ishitani et al., 1997). M2 were planted on 0.6% agar plates containing full strength Murashige and Skoog salt base (MS salt base; JRH Biosceicnes, Lenex, Kans.) and were germinated and grown at 22±2° C. under continuous white light. One-week-old seedlings were screened for mutants with altered RD29A-LUC (i.e. luminescence) expression in response to low temperature, ABA, or osmotic stress using a thermoelectrically cooled CCD camera. For luminescence imaging, plants were sprayed with 1 mM luciferin in 0.01% Triton X-100 and then kept in the dark for 5 min before imaging. All images were acquired with a 5 min exposure time. The luminescence intensity of each seedling was quantified with the WinView software.
# For ABA treatment, 100 μM (±)-cis, trans-abscisic acid in H2O was sprayed uniformly on leaves of seedlings and the plants were incubated at room temperature under cool-white light for 4 hr (for luminescence imaging) or 3 hr (for RNA analysis). For NaCl or PEG treatment, seedlings on MS plates were transferred to filter paper saturated with MS solution supplemented with 300 mM NaCl or 30% of polyethylene glycol (molecular weight 6,000) and incubated for 5 hr. Unless otherwise stated, cold treatment for image analysis and RNA analysis were done by incubating seedlings growing in plates at 0° C. in the dark for 48 hr (for imaging) or 12 hr (for RNA analysis). Because longer treatment at −5 or −10° C. will result in freezing of the agar media, these freezing temperature treatments only lasted for 3 hr. After the treatment, the plates were placed at room temperature for 2 hr to thaw before luminescence images acquisition. For ABA plus NaCl treatment, seedlings were transferred onto a filter paper saturated with 300 mM NaCl in MS solution and sprayed immediately with 100 μM ABA. […]
# [1] = tested on: Arabidopsis wild type and los5-1 plants; assay: Transpirational water loss of detached aerial parts after ABA spray; settings: sprayed with 100 μM ABA 3 hr before detaching aerial parts
# Method: To determine whether los5 mutant plants are deficient in ABA or are insensitive to ABA, wild type and los5-1 plants at the rosette stage were sprayed with 100 μM ABA 3 hr before detaching the aerial parts for water loss measurement.
# For water loss measurement, plants at the rosette stage were detached from soil surface and weighed immediately in a plastic weighing boat. The boat with the plants was then placed on laboratory bench (relative humidity ˜30%) and weighed at designated time intervals. There were four replicates for each line. Percent loss of fresh weight was calculated based on the initial weight of the plants.
structure (smiles),measurement,setting,value
"CC1=CC(=O)CC(C)(C)C1(O)/C=C/C(C)=C\C(=O)O (racemic) [ABA, (±)-cis, trans-abscisic acid]",transcript level of LOS5,LOS5/ABA3 gene,increases significantly
same,RD29A-LUC expression,"RD29A-LUC; los5 and los6/aba1 seedlings, 100 μM ABA administered simultaneously with 300 mM NaCl, 4 hr",restored to the wild type level or higher
same,RD29A-LUC expression,"RD29A-LUC; los5 mutant seedlings, 100 μM ABA together with cold, 0° C. for 48 hr",failed to restore
same,RD29A-LUC luminescence expression,"RD29A-LUC; los6/aba1 seedlings, 100 μM ABA together with cold, 0° C. for 48 hr",close to the wild type level
same,rate of water loss,[1]; los5-1 plants at rosette stage,reduced substantially
same,transpirational water loss,[1]; wild type plants at rosette stage,did not significantly affect
